ChEMBL document CHEMBL3045590, “Design, synthesis, bioactivity, and structure-activity relationship (SAR) studies of novel benzoylphenylureas containing oxime ether group” (2008)
Converted amounts (≈) assume the structure as drawn.

Key:
Assay type in all cases: functional
[1] = tested on: Cucumis sativus; experiment: Growth regulation of Cucumis sativus (cucumber) seeds assessed as stimulation of radicle growth at 10 mg/l at 26 degC after 5 days
[2] = tested on: Culex pipiens pallens; experiment: Larvicidal activity against fourth-instar larval stage of Culex pipiens pallens (mosquito) assessed as mortality at 0.5 mg/l at 25 +/-1 degC after 8 days; details: 192 h
[3] = tested on: Culex pipiens pallens; experiment: Larvicidal activity against fourth-instar larval stage of Culex pipiens pallens (mosquito) assessed as mortality at 1 mg/l at 25 +/-1 degC after 8 days; details: 192 h
[4] = tested on: Mythimna separata; experiment: Larvicidal activity against fourth-instar larval stage of Mythimna separata (Oriental armyworm) in compound-pretreated corn leaves assessed as mortality at 50 mg/l at 25 +/-1 degC after 4 days
[5] = tested on: Mythimna separata; experiment: Larvicidal activity against fourth-instar larval stage of Mythimna separata (Oriental armyworm) in compound-pretreated corn leaves assessed as mortality at 100 mg/l at 25 +/-1 degC after 4 days
[6] = tested on: Mythimna separata; experiment: Larvicidal activity against fourth-instar larval stage of Mythimna separata (Oriental armyworm) in compound-pretreated corn leaves assessed as mortality at 200 mg/l at 25 +/-1 degC after 4 days
[7] = tested on: Culex pipiens pallens; experiment: Larvicidal activity against fourth-instar larval stage of Culex pipiens pallens (mosquito) assessed as mortality at 0.25 mg/l at 25 +/-1 degC after 8 days; details: 192 h
[8] = tested on: Culex pipiens pallens; experiment: Larvicidal activity against fourth-instar larval stage of Culex pipiens pallens (mosquito) assessed as mortality at 0.1 mg/l at 25 +/-1 degC after 8 days; details: 192 h
[9] = tested on: Mythimna separata; experiment: Larvicidal activity against fourth-instar larval stage of Mythimna separata (Oriental armyworm) in compound-pretreated corn leaves assessed as mortality at 10 mg/l at 25 +/-1 degC after 4 days
[10] = tested on: Mythimna separata; experiment: Larvicidal activity against fourth-instar larval stage of Mythimna separata (Oriental armyworm) in compound-pretreated corn leaves assessed as mortality at 25 mg/l at 25 +/-1 degC after 4 days
[11] = tested on: Mythimna separata; experiment: Larvicidal activity against fourth-instar larval stage of Mythimna separata (Oriental armyworm) in compound-pretreated corn leaves assessed as mortality at 2.5 mg/l at 25 +/-1 degC after 4 days
[12] = tested on: Mythimna separata; experiment: Larvicidal activity against fourth-instar larval stage of Mythimna separata (Oriental armyworm) in compound-pretreated corn leaves assessed as mortality at 25 +/-1 degC after 4 days
[13] = tested on: Culex pipiens pallens; experiment: Larvicidal activity against fourth-instar larval stage of Culex pipiens pallens (mosquito) assessed as mortality at 0.0025 mg/l at 25 +/-1 degC after 8 days; details: 192 h
[14] = tested on: Culex pipiens pallens; experiment: Larvicidal activity against fourth-instar larval stage of Culex pipiens pallens (mosquito) assessed as mortality at 0.005 mg/l at 25 +/-1 degC after 8 days; details: 192 h
[15] = tested on: Culex pipiens pallens; experiment: Larvicidal activity against fourth-instar larval stage of Culex pipiens pallens (mosquito) assessed as mortality at 0.01 mg/l at 25 +/-1 degC after 8 days; details: 192 h
[16] = tested on: Culex pipiens pallens; experiment: Larvicidal activity against fourth-instar larval stage of Culex pipiens pallens (mosquito) assessed as mortality at 0.05 mg/l at 25 +/-1 degC after 8 days; details: 192 h
[17] = tested on: Culex pipiens pallens; experiment: Larvicidal activity against fourth-instar larval stage of Culex pipiens pallens (mosquito) assessed as mortality at 0.025 mg/l at 25 +/-1 degC after 8 days; details: 192 h
[18] = tested on: Mythimna separata; experiment: Larvicidal activity against fourth-instar larval stage of Mythimna separata (Oriental armyworm) in compound-pretreated corn leaves assessed as mortality at 5 mg/l at 25 +/-1 degC after 4 days
[19] = tested on: Mythimna separata; experiment: Larvicidal activity against fourth-instar larval stage of Mythimna separata (Oriental armyworm) in compound-pretreated corn leaves assessed as mortality at 1 mg/l at 25 +/-1 degC after 4 days

Row | Compound | Activity [1] [%] | mortality at 0.5 µg/mL [2] [%] | mortality at 1 µg/mL [3] [%] | mortality at 50 µg/mL [4] [%] | mortality at 100 µg/mL [5] [%] | mortality at 200 µg/mL [6] [%] | mortality at 0.25 µg/mL [7] [%] | mortality at 0.1 µg/mL [8] [%] | mortality at 10 µg/mL [9] [%] | mortality at 25 µg/mL [10] [%] | mortality at 2.5 µg/mL [11] [%] | LC50 [12] [µg/mL] | mortality at 0.0025 µg/mL [13] [%] | mortality at 0.005 µg/mL [14] [%] | mortality at 0.01 µg/mL [15] [%] | mortality at 0.05 µg/mL [16] [%] | mortality at 0.025 µg/mL [17] [%] | mortality at 5 µg/mL [18] [%] | mortality at 1 µg/mL [19] [%]
1 | COCCO/N=C/c1ccc(NC(=O)NC(=O)c2c(F)cccc2F)cc1 | 30 | 0 | 100 | 0 | 10 | 40 |  |  |  |  |  |  |  |  |  |  |  |  | 
2 | COC(=O)CO/N=C/c1ccc(NC(=O)NC(=O)c2c(F)cccc2F)cc1 |  | 100 | 100 | 56.7 | 80 | 90 | 80 | 0 | 10 | 30 | 0 |  |  |  |  |  |  |  | 
3 | O=C(NC(=O)c1c(Cl)cccc1Cl)Nc1ccc(Cl)cc1 [DICHLORBENZURON] |  |  |  |  |  |  |  |  |  |  |  | 1.82 (≈ 5.3 µM) |  |  |  |  |  |  | 
4 | CCC(C)O/N=C/c1ccc(NC(=O)NC(=O)c2c(F)cccc2F)cc1 (configuration not stated) |  |  |  |  |  |  |  | 100 | 80 | 100 | 30 |  | 10 | 20 | 40 | 100 | 100 | 50 | 0
5 | O=C(NC(=O)c1c(F)cccc1F)Nc1cc(Cl)c(Oc2ncc(C(F)(F)F)cc2Cl)c(Cl)c1 [CHLORFLUAZURON] |  |  |  |  |  |  |  |  |  |  |  | 1.03 (≈ 1.91 µM) |  |  |  |  |  |  | 
6 | CCCO/N=C/c1ccc(NC(=O)NC(=O)c2c(F)cccc2F)cc1 |  | 100 | 100 | 70 | 80 |  | 100 | 100 |  | 20 | 0 |  |  |  |  | 50 | 0 |  | 
7 | O=C(NC(=O)c1c(F)cccc1F)Nc1ccc(/C=N/OCCF)cc1 | 110 | 100 | 100 | 90 |  |  | 100 | 60 | 20 | 90 | 0 |  |  |  |  | 10 | 0 |  | 
8 | CC(C)CO/N=C/c1ccc(NC(=O)NC(=O)c2c(F)cccc2F)cc1 | 45 | 100 | 100 | 80 | 100 |  | 100 | 100 |  | 30 | 0 |  |  |  | 0 | 10 | 10 |  | 
9 | O=C(NC(=O)c1c(F)cccc1F)Nc1ccc(/C=N/OCCCl)cc1 | 110 | 100 | 100 | 100 |  |  | 100 | 90 | 100 |  | 55 |  |  |  | 0 | 90 | 20 | 75 | 0
10 | O=C(NC(=O)c1c(F)cccc1F)Nc1cc(Cl)c(F)c(Cl)c1F [TEFLUBENZURON] |  |  |  |  |  |  |  |  |  |  |  | 1.14 (≈ 2.99 µM) |  |  |  |  |  |  | 
11 | O=C(NC(=O)c1c(F)cccc1F)Nc1cc(Cl)c(OC(F)(F)C(F)F)c(Cl)c1 [HEXAFLUMURON] |  |  |  |  |  |  |  |  |  |  |  | 4.7 (≈ 10.2 µM) |  |  |  |  |  |  | 
